Entries after “also recorded” stand apart in the source; their conditions may differ. Read-outs that look alike come from different tables or passages of the source.
What was measured:
[1] = test system: CAM of 10-day-old chick embryos; assay: Chorioallantoic membrane (CAM) model of angiogenesis, Table 1; type: in vivo; details: for Mean Number of Branch Points ± SD: n = 8, control 76 ± 10
Description: (§1) Chorioallantoic membrane (CAM) Model of Angiogenesis: In vivo Neovascularization was examined by methods described previously. 9-12 Ten-day-old chick embryos were purchased from SPAFAS (Preston, Conn.) and incubated at 37° C. with 55% relative humidity. A hypodermic needle was used to make a small hole in the shell concealing the air sac, and a second hole was made on the broad side of the egg, directly over an avascular portion of the embryonic membrane that was identified by candling. A false air sac was created beneath the second hole by the application of negative pressure at the first hole, causing the CAM to separate from the shell. A window approximately 1.0 cm 2 was cut in the shell over the dropped CAM with a small-crafts grinding wheel (Dremel, division of Emerson Electric Co.), allowing direct access to the underlying CAM. FGF2 (1 μg/mL) was used as a standard proangiogenic agent to induce new blood vessel branches on the CAM of 10-day-old embryos. Sterile disks of No. 1 filter paper (Whatman International) were pretreated with 3 mg/mL cortisone acetate. Nicotine, nicotinic acid analogs, FGF2 or control solvents, and inhibitors were then applied to the disks and the disks allowed to dry. The disks were then suspended in PBS and placed on growing CAMs. Filters treated were placed on the first day of the 3-day incubation, with antibody to FGF2 added 30 minutes later to selected samples as indicated. At 24 hours, the MAPK cascade inhibitor PD 98059 was also added to CAMs topically by means of the filter disks.
(§2) Microscopic Analysis of CAM Sections: After incubation at 37° C. with 55% relative humidity for 3 days, the CAM tissue directly beneath each filter disk was resected from control and treated CAM samples. Tissues were washed 3× with PBS, placed in 35-mm Petri dishes (Nalge Nunc), and examined under an SV6 stereomicroscope (Zeiss) at ×50 magnification. Digital images of CAM sections exposed to filters were collected using a 3-charge-coupled device color video camera system (Toshiba) and analyzed with Image-Pro software (Media Cybernetics). The number of vessel branch points contained in a circular region equal to the area of each filter disk were counted. One image was counted in each CAM preparation, and findings from 8 to 10 CAM preparations were analyzed for each treatment condition (Nicotine, nicotinic acid analogs). The resulting angiogenesis index is the mean±SEM of new branch points in each set.

[2] = test system: CAM of 10-day-old chick embryos; assay: Nicotine, nicotinic acid and FGF2 alone and combined, branch points (Table 2, titled Release of FGF2 From Endothelial Cells); type: in vivo; details: for Average number of branch Points ± SD: n = 16, control 86 ± 14
Description: as §1
as §2, with “One image was counted in each CAM preparation, and findings from 8 to 10 CAM preparations were analyzed for each treatment condition (Nicotine, nicotinic acid analogs).” left out

[3] = test system: normal human dermal fibroblast cells (NHDF); details: in vitro wound healing
Description: Additionally, a 3-dimensional wound healing method already established in our Laboratory will be utilized in this study (see below).
In Vitro 3D Wound Healing Assay of Human Dermal Fibroblast Cells:
Step 1: Prepare Contracted Collagen Gels: • 1) Coat 24-well plate with 350 ul 2% BSA at RT for 2 hr, • 2) 80% confluent NHDF (normal human dermal fibroblast cells, Passage 5-9) are trypsinized and neutralized with growth medium, centrifuge and wash once with PBS • 3) Prepare collagen-cell mixture, mix gently and always on ice:
• 4) Aspire 2% BSA from 24 well plate, add collagen-cell mixture 350 ul/well, and incubate the plate in 37° C. CO2 incubator. • 5) After 1 hr, add DMEM+5% FBS medium 0.5 ml/well, use a 10 ul tip Detach the collagen gel from the edge of each well, then incubate for 2 days. The fibroblast cells will contract the collagen gel
Step 2: Prepare 3D Fibrin Wound Clot and Embed Wounded Collagen Culture • 1) Prepare fibrinogen solution (1 mg/ml) with or without testing regents. 350 ul fibrinogen solution for each well in eppendorf tube.
• 2) Cut each contracted collagen gel from middle with scissors. Wash the gel with PBS and transfer the gel to the center of each well of 24 well plate • 3) Add 1.5 ul of human thrombin (0.25 U/ul) to each tube, mix well and then add the solution around the collagen gel, the solution will polymerize in 10 mins. […]

Compound: CN1CCCC1c1cccnc1 (stereo not drawn) [Nicotine]
- New blood vessel generation / branch formation in the CAM model (in words) [1]: promoted new blood vessel generation; also recorded: promotes new blood vessel branch formation
- Mean Number of Branch Points ± SD ([1]; 0.1 μg): 192 ± 11
- Average number of branch Points ± SD ([2]; 0.05 ug): 145 ± 10
- Average number of branch Points ± SD ([2]; 0.1 ug): 192 ± 11
- Pro-angiogenesis effect compared with FGF2 (in words) ([2]; Table 2): comparable pro-angiogenesis effect to that shown with FGF2
- Stimulation of wound healing (in words) [3]: potent stimulation of wound healing

Compound: O=C(O)c1cccnc1 [Nicotinic acid]
- New blood vessel generation / branch formation in the CAM model (in words) [1]: promoted new blood vessel generation
- Mean Number of Branch Points ± SD ([1]; 1.0 μg): 155 ± 16
- New blood vessel generation / branch formation in the CAM model (in words) ([1]; listed as nicotinic acid): promotes new blood vessel branch formation

Compound: FGF2: basic fibroblast growth factor, used as a standard proangiogenic agent
- Mean Number of Branch Points ± SD ([1]; 1.0 μg): 195 ± 22
- Average number of branch Points ± SD ([2]; 0.5 ug): 115 ± 08
- Average number of branch Points ± SD ([2]; 1.0 ug): 195 ± 22
